Test results reported in US11464749B2, “Bismuth-thiol compositions and methods of use” (Microbion Corporation, priority 2018, dated 2022).
Values joined by “and” are separate entries in the source; they are usually repeats but may differ in a detail not shown here. Identical values can stand only once. Like-named read-outs stand apart in the source and are kept apart here.

Key:
C. glabrata = assay: Broth microdilution MIC, yeast (Example 11); type: cell-based; conditions: Nakaseomyces glabratus, FLU^R
Candida krusei = assay: Broth microdilution antifungal susceptibility (Example 13); type: cell-based; conditions: Pichia kudriavzevii
C. parapsilosis = assay: Broth microdilution MIC, yeast (Example 11); type: cell-based
A. niger = assay: Broth microdilution antifungal susceptibility (Example 13); type: cell-based; conditions: Aspergillus niger, ATCC29508; read-out: MIC0 48 hr
anaerobes = assay: Agar dilution MIC (Example 11); type: cell-based; conditions: read-out: MIC values
Enterobacter cloacae = assay: Broth microdilution MIC (Example 11); conditions: ATCCBAA2468
[1] = system: Pseudomonas aeruginosa strain PA01; assay: Bacterial killing curves with and without CF patient sputum; design: time to sterilization below the limit of detection: dose or concentration left out as unconfirmed; conditions: for bactericidal activity against PA01: 0.1 μg/mL; for effect of CF patient sputum on bactericidal activity: 10% CF patient sputum
[2] = Phase 1 human clinical studies, topical tolerability; type: in vivo; conditions: humans
[3] = Face mask inhalation in beagle dogs: clinical chemistry; type: in vivo; conditions: sampling times not given
Method: (§1) Once adequately conditioned to the restraint device and face-masks, the animals are individually exposed to the test article aerosols. Animals receive a single face-mask inhalation exposure in a ramp study design to test article aerosols for up to 60 min. Animal observations during and post exposure determine the tolerance of inhaled BisEDT aerosols.
(§2) Group 1 (vehicle) are exposed to a vehicle atmosphere for 30 minutes. Group 2 (50 μg/kg) are exposed to BisEDT for 30 minutes. Target concentrations and exposure durations for Groups 3-5 are based on the presence of any toxicity via clinical observations or gross necropsy findings. In each of Groups 3-5, if no adverse clinical signs of toxicity are observed, the next groups' exposure will be conducted at a higher target dose. If adverse clinical signs of toxicity are observed, the next groups' exposure will be conducted at a lower target dose. This approach is repeated for all BisEDT doses. The final documented exposure duration is the maximum tolerated dose or the maximum feasible dose.
The aerosol generation system couples a commercially available compressed air jet nebulizer to a chamber that allows the aerosols to transition to the animals. Exposure is by face-mask inhalation per the study design above. […] Formulation concentration and exposure duration are modulated to achieve target doses if necessary.
Blood Collections and Bioanalytical Analysis: Blood are collected for pharmacokinetic (PK) analysis prior to exposure, then at 4 hr (±5 min) post exposure, and again on Day 1, Day 2, Day 7 (pre- and 4 hr (±5 min)-post exposure), Day 8, Day 9, Day 10, Day 11, Day 12, Day 13, and Day 14. A total of 0.25 mL is collected at each timepoint. No PK blood is collected from the vehicle control (Group 1) animals; only animals exposed to BisEDT have blood collected for PK analysis. Collected samples are flash frozen without processing for shipment to Medpace for bioanalytical analysis. Additional blood is collected from all animals in all groups for hematology (1 mL) and clinical chemistry (1 mL) at baseline, Day 7 (pre-exposure), and again at euthanasia. Blood (2-2 mL) is collected from all animals at necropsy for coagulation analysis (d-Dimer, fibrinogen, PT, and PTT).
For clinical chemistry analyses, whole blood (1 mL) is placed into serum separator or clot tube and […] by centrifugation at a minimum of 1300 g at 2 to 8° C. for 10 (±1) min. Plasma samples are stored at −70 to −90° C. until analysis.
Clinical chemistry samples are analyzed on a Hitachi Modular Analytics Clinical Chemistry System (Roche Diagnostics, Indianapolis, Ind.).

[4] = Face mask inhalation in beagle dogs: hematology; type: in vivo; conditions: inhalation Day 0 and Day 7, successive samplings
Method: as §1, §2
The aerosol generation system couples a commercially available compressed air jet nebulizer to a chamber that allows the aerosols to transition to the animals. […]
Hematology samples are analyzed by automated (ADVIA™ 120 Hematology System, Siemens Medical Solutions Diagnostics, Tarrytown, N.Y.) analyses. Disposition will be recorded on the sample processing form.

[5] = Grp 1 (1001 Male, 1002 Female, Avg), 3 lines per subject
[6] = Grp 2 (2001 Male, 2002 Female, Avg), 3 lines per subject
[7] = Grp 3 (3001 Male, 3002 Female, Avg), 3 lines per subject
[8] = Grp 4 (4001 Male, 4004 Female, Avg; 4002 Female, 4003 Male), 2-3 lines per subject

## CC(S)C(C)S.[Bi] (stereo not drawn) [BisBDT, bismuth-2,3-butanedithiol]
C. glabrata; 24 h, C. glabrata MMX 7086
  MIC: 0.5 µg/mL
C. glabrata; 24 h, C. glabrata MMX 7318
  MIC: 0.25 µg/mL
C. glabrata; 48 h, C. glabrata MMX 7086
  MIC: 1 µg/mL
C. glabrata; 48 h, C. glabrata MMX 7318
  MIC: 0.5 µg/mL
Candida krusei; ATCC6258, read-out: MIC0 (complete inhibition)
  MIC: 1 µg/mL
Candida krusei; ATCC14243, read-out: MIC0 (complete inhibition)
  MIC: 1 µg/mL
Candida krusei; ATCC96685, read-out: MIC2 (50% inhibition)
  MIC: 0.25 µg/mL
Candida krusei; read-out: MIC2 (50% inhibition)
  MIC: 1 µg/mL
Candida krusei; read-out: MIC0 (complete inhibition)
  MIC: 2 µg/mL
C. parapsilosis; C. parapsilosis MMX 7555, FLU^R, 24 hr
  MIC: 0.25 µg/mL
C. parapsilosis; C. parapsilosis MMX 7555, FLU^R, 48 hr
  MIC: 0.5 µg/mL
C. parapsilosis; Lodderomyces parapsilosis, 24 h
  MIC: 0.25 µg/mL
C. parapsilosis; Lodderomyces parapsilosis, 48 h
  MIC: 0.5 µg/mL
C. parapsilosis; Lodderomyces parapsilosis, ATCC22019, 24 h
  MIC: 0.5 µg/mL
C. parapsilosis; Lodderomyces parapsilosis, ATCC22019, 48 h
  MIC: 1 µg/mL
A. niger
  MIC: 2 µg/mL
anaerobes
  MIC: 1 to 4 µg/mL
Enterobacter cloacae
  MIC: 2 µg/mL
[1]
  bactericidal activity against PA01: not bactericidal
  effect of CF patient sputum on bactericidal activity: partially inhibited
[1]; with and without sputum
  time to sterilization below the limit of detection: ≤ 5 h

## C1C[S][Bi]([S]CC[S][Bi]2[S]CC[S]2)[S]1 [BisEDT, bismuth-1,2-ethanedithiol]
[2]; 6 hours
  concentration well-tolerated when administered topically: up to 2500 μg/cm^2
[2]; over 21 days continuous exposure, normal and abraded skin
  concentration tolerated when administered topically: up to 75 μg/cm^2
[3]; [5]
  AGR: 2.6 and 1.9 (2×) and 2.1 (2×)
  ALB: 3.7 g/dL
  ALPK: 125 IU/L and 120 IU/L and 248 IU/L and 243 IU/L and 235 IU/L and 91 IU/L
  ALT: 26 IU/L and 27 IU/L and 29 IU/L and 21 IU/L
  AST: 33 IU/L (2×) and 29 IU/L (2×) and 27 IU/L
  BUN: 13 mg/dL (2×) and 17 mg/dL
  CA2: 10.3 mg/dL
  CHOL: 129 mg/dL and 116 mg/dL and 132 mg/dL and 130 mg/dL and 107 mg/dL
  CREA: 0.5 mg/dL
  GLOB: 1.4 g/dL and 1.5 g/dL and 1.8 g/dL
  GLUC: 88 mg/dL and 89 mg/dL and 90 mg/dL and 78 mg/dL and 92 mg/dL (2×)
  K: 4.5 mmo/L and 4.7 mmo/L (2×) and 4.2 mmo/L and 5.1 mmo/L
  Na: 150 mmo/L
  TP: 5.5 g/dL and 4.9 g/dL
  TRIG: 32 mg/dL and 29 mg/dL and 53 mg/dL and 39 mg/dL and 38 mg/dL and 37 mg/dL
[3]; [6]
  AGR: 1.9 and 2.0 and 1.7 and 2.3 (2×)
  ALB: 3.4 g/dL and 3.7 g/dL
  ALT: 22 IU/L (3×) and 18 IU/L and 29 IU/L and 27 IU/L
  AST: 48 IU/L and 36 IU/L (2×) and 35 IU/L and 41 IU/L and 38 IU/L
  BUN: 12 mg/dL and 16 mg/dL and 14 mg/dL (2×)
  CHOL: 114 mg/dL
  Cl: 108 mmo/L and 110 mmo/L and 114 mmo/L
  GLOB: 2.0 g/dL and 1.9 g/dL and 1.6 g/dL (2×)
  GLUC: 91 mg/dL and 97 mg/dL and 95 mg/dL and 89 mg/dL
  K: 4.5 mmo/L and 4.9 mmo/L and 5.0 mmo/L and 5.2 mmo/L and 4.6 mmo/L
  TP: 5.0 g/dL and 5.5 g/dL and 5.3 g/dL
  TRIG: 66 mg/dL and 80 mg/dL and 63 mg/dL and 38 mg/dL and 39 mg/dL and 31 mg/dL
[3]; [7]
  AGR: 2.0 (2×) and 2.1 and 2.3 and 1.8 and 2.6
  ALB: 3.2 g/dL and 3.7 g/dL
  ALPK: 90 IU/L
  ALT: 26 IU/L and 24 IU/L and 28 IU/L and 20 IU/L (2×)
  AST: 33 IU/L and 28 IU/L
  BUN: 13 mg/dL and 17 mg/dL and 33 mg/dL and 11 mg/dL and 25 mg/dL
  CHOL: 100 mg/dL
  CREA: 0.7 mg/dL and 0.5 mg/dL and 0.9 mg/dL
  Cl: 110 mmo/L
  GLOB: 1.7 g/dL and 2.0 g/dL and 1.4 g/dL
  GLUC: 100 mg/dL and 88 mg/dL and 51 mg/dL and 112 mg/dL and 90 mg/dL and 65 mg/dL
  K: 4.7 mmo/L and 5.8 mmo/L and 5.5 mmo/L and 5.3 mmo/L
  TP: 4.8 g/dL and 5.0 g/dL (2×) and 5.5 g/dL
  TRIG: 26 mg/dL and 34 mg/dL (2×) and 52 mg/dL and 43 mg/dL and 58 mg/dL
[3]; [8]
  AGR: 2.3 and 2.0 and 1.7 (2×) and 1.6
  ALB: 3.6 g/dL and 3.2 g/dL
  ALT: 27 IU/L (2×) and 25 IU/L and 24 IU/L and 20 IU/L and 21 IU/L and 40 IU/L and 23 IU/L
  AST: 32 IU/L (2×) and 34 IU/L and 38 IU/L and 31 IU/L and 35 IU/L and 30 IU/L
  BUN: 11 mg/dL (2×) and 16 mg/dL and 15 mg/dL
  CHOL: 147 mg/dL and 125 mg/dL and 124 mg/dL and 182 mg/dL and 169 mg/dL and 176 mg/dL
  CREA: 0.5 mg/dL
  GLOB: 1.6 g/dL and 2.1 g/dL (2×) and 2.0 g/dL
  GLUC: 82 mg/dL and 86 mg/dL and 70 mg/dL and 96 mg/dL and 79 mg/dL and 109 mg/dL and 81 mg/dL
  K: 4.8 mmo/L and 4.6 mmo/L and 5.1 mmo/L and 4.3 mmo/L and 5.3 mmo/L (2×) and 4.9 mmo/L (2×)
  TP: 4.9 g/dL and 5.1 g/dL and 5.6 g/dL and 5.5 g/dL and 5.4 g/dL (2×)
  TRIG: 49 mg/dL (2×) and 46 mg/dL and 40 mg/dL and 53 mg/dL (2×) and 44 mg/dL and 34 mg/dL and 41 mg/dL and 55 mg/dL
[4]; dog Group 2, lung deposited 55-56 ug/kg, lines = animal 2001, 2002 or Grp Avg
  LUC: 0.01 ^3/uL and 0.02 ^3/uL
[4]; dog Group 4, lung deposited 176-197 ug/kg, lines = animal 4001-4004 or Grp Avg
  LUC: 0.01 ^3/uL and 0.02 ^3/uL
[1]
  bactericidal activity against PA01: not bactericidal
  effect of CF patient sputum on bactericidal activity: partially inhibited

## C[C@@H](O)[C@H]1C(=O)N2C(C(=O)O)=C(S[C@@H]3CN[C@H](C(=O)N(C)C)C3)[C@H](C)[C@H]12 [Meropenem, reference compound]
Enterobacter cloacae
  MIC: > 64 µg/mL
